The text below walks through data of paper PMC5536041, “Inhibitory Effects of Trapping Agents of Sulfur Drug Reactive Intermediates against Major Human Cytochrome P450 Isoforms” (International Journal of Molecular Sciences, 2017).

As usually defined, the IC50 is the midpoint of a concentration-inhibition curve. A higher IC50 goes with weaker potency.

Where two headings read alike, the source gives them in different places.

Data set [1] has as its system major human CYP isoforms (CYP1A2, 2C9, 2C19, 2D6 and 3A). The experiment in a line: CYP inhibition in human liver microsomes, summary over the isoform panel. Conditions: HLM + NADPH. For orientation: Microsomes from liver hold many membrane-bound enzymes, among them those of drug oxidation.
Data set [2] deals with T1, CYP2D6 (Homo sapiens, UniProt P10635). The experiment in a line: CYP inhibition in human liver microsomes, CYP2D6 (dextromethorphan probe).
For data set [3], the target named is T2, CYP1A2 (Homo sapiens, UniProt P05177).
T2 sequence (P05177 1-516): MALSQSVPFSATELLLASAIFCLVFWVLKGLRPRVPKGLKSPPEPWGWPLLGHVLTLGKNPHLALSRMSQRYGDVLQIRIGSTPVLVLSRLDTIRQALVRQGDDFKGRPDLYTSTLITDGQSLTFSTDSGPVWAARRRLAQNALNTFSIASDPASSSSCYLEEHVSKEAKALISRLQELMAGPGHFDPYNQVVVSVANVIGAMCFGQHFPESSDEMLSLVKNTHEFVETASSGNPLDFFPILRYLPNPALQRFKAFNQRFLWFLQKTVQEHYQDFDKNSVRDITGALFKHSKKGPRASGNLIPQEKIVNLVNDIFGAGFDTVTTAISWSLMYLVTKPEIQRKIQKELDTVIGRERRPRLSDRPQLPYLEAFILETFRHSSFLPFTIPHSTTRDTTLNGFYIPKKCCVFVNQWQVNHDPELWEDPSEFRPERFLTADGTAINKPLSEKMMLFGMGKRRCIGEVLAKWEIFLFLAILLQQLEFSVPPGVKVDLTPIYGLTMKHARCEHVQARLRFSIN
The data set is described as follows: CYP inhibition in human liver microsomes, CYP1A2 (tacrine probe).

The target of data set [4] is T2, CYP1A2. To be noted: microsomes.
The test system of data set [5] is major human CYP isoforms (CYP1A2, 2C9, 2C19, 2D6 and 3A). The data set is described as follows: in vitro. Conditions: microsomes.
Data set [6] concerns the target T3, CYP2C9 (Homo sapiens, UniProt P11712). The data set is described as follows: CYP inhibition in human liver microsomes, CYP2C9 ((S)-warfarin probe). Conditions: for Activation of CYP2C9 observed at concentrations up to: HLM + NADPH, (S)-warfarin probe.
The target in data set [7] is T4, CYP2C19 (Homo sapiens, UniProt P33261). The experiment in a line: CYP inhibition in human liver microsomes, CYP2C19 ((S)-mephenytoin probe). Conditions: for Activation of CYP2C19 observed at concentrations up to: HLM + NADPH, (S)-mephenytoin probe.
The target of data set [8] is T5, CYP3A (Homo sapiens, UniProt P08684). The experiment in a line: in vitro. To be noted: microsomes.
Data set [9] has as its target T5, CYP3A. The data set is described as follows: in vitro. Conditions: microsomes. This is another data set of the same source.
Data set [10] deals with ticlopidine metabolism in human liver microsomes (TSOD and TSO-NEM formation). The data set is described as follows: Trapping of reactive metabolites of ticlopidine with NEM in human liver microsomes. Type of data set: in vitro ADME. To be noted: ticlopidine 1 μM. As for the experimental part: Ticlopidine (1 μM) was incubated at 37 °C for 15 min in the presence or absence of various concentrations of NEM with HLM (0.5 mg/mL), NADPH (1 mM) and KPi (0.1 M), in a final incubation volume of 100 µL. Assay conditions were optimized with regard to protein concentration and incubation time, based on linear formation of TSOD. The incubations were performed over a concentration range of NEM (0.0007–40 mM) including a vehicle control, for a total of twelve incubations. A 50 µL sample was withdrawn at 15 min and the reactions were quenched in 100 µL of 0.1% formic acid in ACN containing an IS. Samples were centrifuged at 2000× g for 10 min and supernatants (75 µL) were removed and diluted with 0.1% formic acid in water (150 µL). The prepared samples were analyzed by LC-MS/MS for ticlopidine, N-ethylmaleimide-trapped S-oxide (TSO-NEM) and ticlopidine S-oxide dimer (TSOD). Peak areas were normalized to an IS, and the percentage of metabolite formed at the end of the incubation was calculated and compared to the incubation containing the highest peak area to IS ratio of metabolite (set at 100%).
The prepared samples were analyzed by LC-MS/MS using a Cohesive LX-2 Transcend Multiplexing system with Agilent 1100 series high pressure liquid chromatography (HPLC) pumps from Agilent Technologies (Santa Clara, CA, USA) and an HTS PAL autosampler from CTC Analytics (Carrboro, NC, USA) connected to a Sciex API5500-QTrap mass spectrometer with a Turbo V™ ion source (Foster City, CA, USA). A Phenomenex Kinetex Phenyl-Hexyl HPLC column (30 × 2.1 mm, 2.6 µ) was used with 0.1% formic acid in water (mobile phase A) or 0.1% formic acid in ACN (mobile phase B) flowing at 0.55 mL/min in the following gradient: mobile phase B was held at 1% for 0.4 min, increased to 5% over 0.2 min, to 55% over 6.7 min and to 95% over 0.5 min, where it was held for 0.75 min prior to re-equilibration at 1%. LC-MS/MS multiple reaction (MRM) transitions for the CYP inhibition assay were reported previously. […]

In data set [11] the target is T2, CYP1A2. The experiment in a line: in vitro. Conditions: microsomes.
The target of data set [12] is T3, CYP2C9. Conditions: microsomes.
In data set [13] the target is T4, CYP2C19. Conditions: microsomes.
Data set [14] concerns the target T1, CYP2D6. Conditions: microsomes.
The target of data set [15] is T5, CYP3A. To be noted: microsomes.
In data set [16] the target is T5, CYP3A. To be noted: microsomes. This is another data set of the same source.
For data set [17], the system named is major human CYP isoforms (CYP1A2, 2C9, 2C19, 2D6 and 3A).

T4 sequence (P33261 whole entry): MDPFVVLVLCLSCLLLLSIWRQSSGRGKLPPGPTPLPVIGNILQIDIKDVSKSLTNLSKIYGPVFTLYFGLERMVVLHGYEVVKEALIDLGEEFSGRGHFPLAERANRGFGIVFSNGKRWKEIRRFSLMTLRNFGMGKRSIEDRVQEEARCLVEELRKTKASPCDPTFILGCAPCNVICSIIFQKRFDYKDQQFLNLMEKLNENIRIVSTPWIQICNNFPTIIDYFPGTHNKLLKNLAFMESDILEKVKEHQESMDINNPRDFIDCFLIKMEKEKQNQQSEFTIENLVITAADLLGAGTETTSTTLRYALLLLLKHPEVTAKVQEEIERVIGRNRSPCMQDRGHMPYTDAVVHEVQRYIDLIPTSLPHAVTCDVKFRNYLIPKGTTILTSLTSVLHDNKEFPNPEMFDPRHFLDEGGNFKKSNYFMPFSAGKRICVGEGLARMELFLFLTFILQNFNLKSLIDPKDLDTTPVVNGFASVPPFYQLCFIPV
T5 sequence (P08684 2-503 limits assumed): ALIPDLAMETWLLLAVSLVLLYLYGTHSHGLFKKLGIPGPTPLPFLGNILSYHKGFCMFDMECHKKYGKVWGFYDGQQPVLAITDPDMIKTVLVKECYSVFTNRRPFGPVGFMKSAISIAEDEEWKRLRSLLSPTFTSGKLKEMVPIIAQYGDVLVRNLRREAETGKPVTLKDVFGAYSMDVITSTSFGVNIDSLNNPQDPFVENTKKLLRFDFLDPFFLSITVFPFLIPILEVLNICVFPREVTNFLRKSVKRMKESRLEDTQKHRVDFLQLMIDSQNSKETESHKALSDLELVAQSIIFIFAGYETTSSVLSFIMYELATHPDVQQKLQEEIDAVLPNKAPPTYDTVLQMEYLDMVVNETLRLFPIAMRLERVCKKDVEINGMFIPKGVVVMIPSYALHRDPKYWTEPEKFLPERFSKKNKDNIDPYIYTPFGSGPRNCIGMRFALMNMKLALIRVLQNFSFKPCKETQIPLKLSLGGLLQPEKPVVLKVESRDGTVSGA
T1 sequence (P10635 whole entry): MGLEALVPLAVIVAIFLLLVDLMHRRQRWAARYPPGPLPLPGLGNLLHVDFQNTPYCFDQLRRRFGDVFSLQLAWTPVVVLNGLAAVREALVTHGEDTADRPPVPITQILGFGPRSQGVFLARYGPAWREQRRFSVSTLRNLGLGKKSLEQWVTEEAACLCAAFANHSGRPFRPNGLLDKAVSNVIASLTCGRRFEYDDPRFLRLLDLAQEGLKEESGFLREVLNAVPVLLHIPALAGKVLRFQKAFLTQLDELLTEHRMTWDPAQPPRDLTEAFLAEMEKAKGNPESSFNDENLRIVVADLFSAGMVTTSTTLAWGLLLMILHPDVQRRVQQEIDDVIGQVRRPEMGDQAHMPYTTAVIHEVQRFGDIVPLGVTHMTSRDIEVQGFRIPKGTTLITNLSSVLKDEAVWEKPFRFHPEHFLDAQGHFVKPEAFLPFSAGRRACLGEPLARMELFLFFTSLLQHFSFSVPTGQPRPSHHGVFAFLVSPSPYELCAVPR
T3 sequence (P11712 whole entry): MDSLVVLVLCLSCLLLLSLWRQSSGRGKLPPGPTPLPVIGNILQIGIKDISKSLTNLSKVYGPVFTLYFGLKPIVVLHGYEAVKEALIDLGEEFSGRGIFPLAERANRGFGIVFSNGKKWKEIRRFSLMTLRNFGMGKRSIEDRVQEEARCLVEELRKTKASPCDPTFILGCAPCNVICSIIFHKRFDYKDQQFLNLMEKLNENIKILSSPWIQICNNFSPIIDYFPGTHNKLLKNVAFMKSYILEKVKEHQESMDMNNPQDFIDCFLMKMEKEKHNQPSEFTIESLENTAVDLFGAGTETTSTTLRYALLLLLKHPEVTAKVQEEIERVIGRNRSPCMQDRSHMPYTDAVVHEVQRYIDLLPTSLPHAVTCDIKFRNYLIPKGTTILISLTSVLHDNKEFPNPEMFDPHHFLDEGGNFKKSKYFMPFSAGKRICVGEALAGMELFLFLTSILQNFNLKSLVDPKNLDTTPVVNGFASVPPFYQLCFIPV

With `CC1(C)CC(=O)CC(=O)C1` [5,5-dimethyl-1,3-cyclohexanedione], in data set [1], the “Inhibition of CYP isoforms at concentrations tested” value (“Inhibition of CYP isoforms” for short) was “did not inhibit CYP isoforms at concentrations tested”.
Take `O=C(O)CCP(CCC(=O)O)CCC(=O)O` [Tris(2-carboxyethyl) phosphine (TCEP), Tris(2-carboxyethyl) phosphine]: the “Activation of CYP2D6” value at CYP2D6 [2] (HLM + NADPH, dextromethorphan probe) is reported as “activation was observed”.
As to `CN1CCCCC1` [N-Methylpiperidine], the “Activation of CYP1A2 observed at concentrations up to” value on CYP1A2 [3] (HLM + NADPH, tacrine probe) was “up to 12.5 mM”.
For `C1COCCN1` [Morpholine], the “Activation of CYP1A2” value on CYP1A2 [4] is “activation was observed”. Moreover, the IC50 is 7.9 to 16 mM in [5]; > 100 mM against CYP1A2 [3]; 7.9 mM at CYP2C9 [6]; 14 mM at CYP2C19 [7]; 13 mM against CYP2D6 [2].
As to `CC(=O)N[C@@H](CCCCN)C(=O)O` [N-Acetyl-lysine1, N-Acetyl-lysine], the IC50 at CYP3A [8] and on CYP3A [9] was > 50 mM in each case. Also, in data set [1], the “Inhibition of CYP isoforms” value is recorded as “did not inhibit CYP isoforms at concentrations tested”. Also, the “Concentration up to which no CYP inhibition was shown” value in data set [1] (all isoforms tested) is recorded as “up to 50 mM”.
As for `CCN1C(=O)C=CC1=O` [N-Ethylmaleimide (NEM), N-Ethylmaleimide], in data set [10] (HLM 0.5 mg/mL, NADPH, 15 min), the “NEM concentration at and above which TSO-NEM formation rapidly decreases” value was ≥ 165 µM; the “NEM concentrations with initial increase in TSOD formation” value fell in the range of 0.7 to 18.3 µM. Further, the “Response of TSO-NEM formation to increasing NEM concentration” value in data set [10] (NEM 0.007–40 mM) is given as “bell-shaped response curve”. The same compound showed an IC50 at CYP1A2 [11] of 120 µM. In addition, on CYP2C9 [6], the IC50 is 3.2 mM and the “Activation of CYP2C9 observed at concentrations up to” value is reported as “up to 1 mM”. Further, on CYP2C19 [7], half-maximal inhibition (IC50) required 2.9 mM and the “Activation of CYP2C19 observed at concentrations up to” value is recorded as “up to 0.4 mM”. The half-inhibitory concentration (IC50) on CYP2D6 [2] was > 40 mM.
Take `CN1C(=O)C=CC1=O` [N-Methylmaleimide]: the “Activation of CYP2C9 observed at concentrations up to” value on CYP2C9 [6] was “up to 0.2 mM”. On CYP2C19 [7], the “Activation of CYP2C19 observed at concentrations up to” value was “up to 0.2 mM”.
In the case of `O=[As][O-].[Na+]` [Arsenite, sodium arsenite], the IC50 against CYP1A2 [4], against CYP2C9 [12], on CYP2C19 [13], against CYP2D6 [14], against CYP3A [15] and against CYP3A [16] was > 10 mM in each case. The “Concentration up to which no CYP inhibition was shown” value in data set [17] was “up to 10 mM”. Also, the “Inhibition of CYP isoforms” value in data set [17] is given as “did not inhibit CYP isoforms at concentrations tested”.
